Counter-ions that a name gives are not always drawn.
target: T1, Human AHR (Homo sapiens, UniProt P35869); experiment: hAHR Nuclear Translocation Assay; format: cell-based; details: Jump-In T-REx HEK293 cells expressing AhR-EGFP chimera; 45 minutes incubation; ratio of EGFP fluorescent intensity in nuclear over cytosol; 20-point curve
T1 construct: expressed in transfected cells
T1 sequence (P35869 11-848): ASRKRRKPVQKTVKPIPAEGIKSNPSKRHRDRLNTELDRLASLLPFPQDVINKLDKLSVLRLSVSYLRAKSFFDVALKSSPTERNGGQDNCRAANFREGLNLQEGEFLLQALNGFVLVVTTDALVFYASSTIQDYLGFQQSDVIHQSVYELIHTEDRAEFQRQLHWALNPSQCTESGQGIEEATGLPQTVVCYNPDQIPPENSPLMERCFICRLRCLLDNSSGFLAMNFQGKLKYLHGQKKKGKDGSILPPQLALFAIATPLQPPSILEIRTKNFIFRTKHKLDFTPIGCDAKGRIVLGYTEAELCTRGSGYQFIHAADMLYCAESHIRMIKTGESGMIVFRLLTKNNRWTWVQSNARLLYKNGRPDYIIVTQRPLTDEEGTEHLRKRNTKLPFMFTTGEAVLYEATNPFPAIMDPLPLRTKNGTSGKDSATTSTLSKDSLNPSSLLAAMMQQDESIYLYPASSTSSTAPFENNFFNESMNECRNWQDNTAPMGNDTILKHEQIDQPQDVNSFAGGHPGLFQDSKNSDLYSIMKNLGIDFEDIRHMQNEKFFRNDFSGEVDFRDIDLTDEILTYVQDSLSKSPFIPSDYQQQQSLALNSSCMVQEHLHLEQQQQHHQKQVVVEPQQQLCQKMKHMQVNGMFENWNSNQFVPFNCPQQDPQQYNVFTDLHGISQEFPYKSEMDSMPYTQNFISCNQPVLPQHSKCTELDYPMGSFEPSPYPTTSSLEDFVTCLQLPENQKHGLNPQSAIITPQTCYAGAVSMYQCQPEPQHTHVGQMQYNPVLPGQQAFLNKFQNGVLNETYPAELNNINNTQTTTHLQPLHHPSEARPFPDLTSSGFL
Procedure: Stable cell lines were established using Jump-In™ T-REx™ HEK293 Retargeting Kit (Life Technologies). Human AHR cDNA was cloned into the pJTI R4 CMV-TO EGFP vector. The EGFP was cloned to the C-terminal of AHR to form AhR-EGFP chimera. The pJTI R4 CMV-TO AhR-EGFP vector was transfected using FuGENE® HD into Jump-In™ T-REx™ HEK293 cells. Transfected cells were selected using 2.5 mg/ml G418 for 10 to 14 days, then expanded, harvested, and suspended in freeze media (FBS with 8% DMSO) at 2×10^7 cells/ml, and aliquots were stored in liquid nitrogen. […] On the assay date, compound was serially diluted (1:2) into 384-well nunc plates with DMSO using acoustic dispensing (ECHO). The dose response was a 20-point curve. Compound was resuspended in 40 μl of DMEM plus 0.1% BSA. The culture media was damped and 25 μl of DMEM plus 0.1% BSA was added, then 25 μl of compound in DMEM plus 0.1% BSA was added into cell plates. Cells were incubated with compounds at 37° C. and 5% CO2 for 45 minutes. The final DMSO concentration was 0.2%. The media was damped after 45 minutes of incubation. The cells were fixed with 40 μl of cold methanol (−20° C.) for 20 minutes. The methanol was damped and 50 μl of DPBS containing 1 μg/ml Hochst was added into the cell plates. The intensity of EGFP was quantitated by using OPERA PHENIX® or Operetta™ high content image system (Perkin Elmer) with 20× Water Objective and five field per well. The ratio of EGFP fluorescent intensity in nuclear over cytosol was analyzed using a 4-parameter nonlinear logistic equation to determine the potency of AHR agonists.

Row | Structure (SMILES) | EC50
1 | CO[C@H]1CC[C@@H](NC(=O)c2cc3cccc4c3n(c2=O)CC4)C1 (relative stereo) [Example 31, 11-Oxo-N-[rel-(1S,3R)-3-methoxycyclopentyl]-1-azatricyclo[6.3.1.04,12]dodeca-4(12),5,7,9-tetraene-10-carboxamide] | 53.2 nM
2 | COc1ccc(NC(=O)c2cc3ccccc3n(C)c2=O)cc1 [Example 1, N-(4-Methoxyphenyl)-1-methyl-2-oxo-quinoline-3-carboxamide] | 0.304 nM
3 | Cn1c(=O)c(C(=O)Nc2ccccc2O)cc2ccccc21 [Example 2, N-(2-Hydroxyphenyl)-1-methyl-2-oxo-quinoline-3-carboxamide] | 2.41 nM
4 | COc1ccc(NC(=O)c2cc3ccccc3n(C)c2=O)cc1OC [Example 3, N-(3,4-Dimethoxyphenyl)-1-methyl-2-oxo-quinoline-3-carboxamide] | 0.837 nM
5 | Cn1c(=O)c(C(=O)Nc2ccc(F)cc2)cc2ccccc21 [Example 4, N-(4-Fluorophenyl)-1-methyl-2-oxo-quinoline-3-carboxamide] | 0.214 nM
6 | Cc1ccc(NC(=O)c2cc3ccccc3n(C)c2=O)cc1 [Example 5, 1-Methyl-2-oxo-N-(p-tolyl) quinoline-3-carboxamide] | 0.0971 nM
7 | COc1ccc(NC(=O)c2cc3ccccc3n(C)c2=O)c(C)c1 [Example 6, N-(4-Methoxy-2-methyl-phenyl)-1-methyl-2-oxo-quinoline-3-carboxamide] | 5.17 nM
8 | Cc1ccnc(NC(=O)c2cc3ccccc3n(C)c2=O)c1 [Example 7, 1-Methyl-N-(4-methyl-2-pyridyl)-2-oxo-quinoline-3-carboxamide] | 6.13 nM
9 | COc1cccc(NC(=O)c2cc3ccccc3n(C)c2=O)c1 [Example 8, N-(3-Methoxyphenyl)-1-methyl-2-oxo-quinoline-3-carboxamide] | 1.12 nM
10 | Cn1c(=O)c(C(=O)Nc2ccccn2)cc2ccccc21 [Example 9, 1-Methyl-2-oxo-N-(2-pyridyl)quinoline-3-carboxamide] | 0.613 nM
11 | Cc1ccccc1NC(=O)c1cc2ccccc2n(C)c1=O [Example 11, 1-Methyl-N-(o-tolyl)-2-oxo-quinoline-3-carboxamide] | 3.5 nM
12 | Cn1c(=O)c(C(=O)Nc2ccncc2)cc2ccccc21 [Example 12, 1-Methyl-2-oxo-N-(4-pyridyl)quinoline-3-carboxamide] | 6.89 nM
13 | Cn1c(=O)c(C(=O)Nc2cccnc2)cc2ccccc21 [Example 13, 1-Methyl-2-oxo-N-(3-pyridyl)quinoline-3-carboxamide] | 3.72 nM
14 | Cn1c(=O)c(C(=O)Nc2ncc(F)cn2)cc2ccccc21 [Example 14, N-(5-Fluoropyrimidin-2-yl)-1-methyl-2-oxo-quinoline-3-carboxamide] | 0.993 nM
15 | COc1cnc(NC(=O)c2cc3ccccc3n(C)c2=O)nc1 [Example 15, N-(5-Methoxypyrimidin-2-yl)-1-methyl-2-oxo-quinoline-3-carboxamide] | 14.2 nM
16 | COc1cnc(NC(=O)c2cc3ccccc3n(C)c2=O)cn1 [Example 16, N-(5-Methoxypyrazin-2-yl)-1-methyl-2-oxo-quinoline-3-carboxamide] | 1.09 nM
17 | Cc1cnc(NC(=O)c2cc3ccccc3n(C)c2=O)nc1 [Example 17, 1-Methyl-N-(5-methylpyrimidin-2-yl)-2-oxo-quinoline-3-carboxamide] | 2.37 nM
18 | Cn1c(=O)c(C(=O)Nc2ccc(F)cc2)cc2cccnc21 [Example 18, N-(4-Fluorophenyl)-1-methyl-2-oxo-1,8-naphthyridine-3-carboxamide] | 0.468 nM

Row | Structure (SMILES) | EC50
19 | Cc1cccc(NC(=O)c2cc3ccccc3n(C)c2=O)n1 [Example 19, 1-Methyl-N-(6-methyl-2-pyridyl)-2-oxo-quinoline-3-carboxamide] | 25.8 nM
20 | Cc1ccc(NC(=O)c2cc3ccccc3n(C)c2=O)nc1 [Example 20, 1-Methyl-N-(5-methyl-2-pyridyl)-2-oxo-quinoline-3-carboxamide] | 0.675 nM
21 | COc1cccc(NC(=O)c2cc3ccccc3n(C)c2=O)n1 [Example 21, N-(6-Methoxy-2-pyridyl)-1-methyl-2-oxo-quinoline-3-carboxamide] | 10.8 nM
22 | Cn1c(=O)c(C(=O)Nc2ccc(F)cn2)cc2ccccc21 [Example 22, N-(5-Fluoro-2-pyridyl)-1-methyl-2-oxo-quinoline-3-carboxamide] | 0.389 nM
23 | Cn1c(=O)c(C(=O)Nc2cccc(F)c2)cc2ccccc21 [Example 23, N-(3-Fluorophenyl)-1-methyl-2-oxo-quinoline-3-carboxamide] | 0.601 nM
24 | Cn1c(=O)c(C(=O)Nc2ccc(C#N)nc2)cc2ccccc21 [Example 24, N-(6-Cyano-3-pyridyl)-1-methyl-2-oxo-quinoline-3-carboxamide] | 7.36 nM
25 | COc1ccc(NC(=O)c2cc3cccc4c3n(c2=O)CCC4)cc1 [Example 25, N-(4-Methoxyphenyl)-2-oxo-1-azatricyclo[7.3.1.05,13]trideca-3,5,7,9(13)-tetraene-3-carboxamide] | 2.57 nM
26 | COc1ccc(NC(=O)c2cc3cccc4c3n(c2=O)CC4)cc1 [Example 26, N-(4-Methoxyphenyl)-11-oxo-1-azatricyclo[6.3.1.04,12]dodeca-4(12),5,7,9-tetraene-10-carboxamide] | 0.701 nM
27 | Cn1cc(NC(=O)c2cc3ccccc3n(C)c2=O)cn1 [Example 27, hydrochloride] | 10.6 nM
28 | Cn1c(=O)c(C(=O)Nc2ncccc2F)cc2ccccc21 [Example 28, N-(3-Fluoro-2-pyridyl)-1-methyl-2-oxo-quinoline-3-carboxamide] | 1.91 nM
29 | Cc1ccc(NC(=O)c2cc3cccc4c3n(c2=O)CC4)cc1 [Example 29, 11-Oxo-N-(p-tolyl)-1-azatricyclo[6.3.1.04,12]dodeca-4(12),5,7,9-tetraene-10-carboxamide] | 0.57 nM
30 | O=C(Nc1ccc(F)cc1)c1cc2cccc3c2n(c1=O)CC3 [Example 30, N-(4-Fluorophenyl)-11-oxo-1-azatricyclo[6.3.1.04,12]dodeca-4(12),5,7,9-tetraene-10-carboxamide] | 0.511 nM
31 | Cn1c(=O)c(C(=O)NC23CC(C2)C3)cc2ccccc21 [Example 32, N-(3-Bicyclo[1.1.1]pentanyl)-1-methyl-2-oxo-quinoline-3-carboxamide] | 16.4 nM
32 | O=C(Nc1ccc(C(F)(F)F)cc1)c1cc2cccc3c2n(c1=O)CC3 [Example 33, 11-Oxo-N-[4-(trifluoromethyl)phenyl]-1-azatricyclo[6.3.1.04,12]dodeca-4(12),5,7,9-tetraene-10-carboxamide] | 1.33 nM
33 | O=C(Nc1ccccc1)c1cc2ccccc2[nH]c1=O [Example 34, 2-Oxo-N-phenyl-1H-quinoline-3-carboxamide] | 9.04 nM
34 | COc1ccc(NC(=O)c2cc3cccnc3n(C)c2=O)cc1 [Example 35, N-(4-Methoxyphenyl)-1-methyl-2-oxo-1,8-naphthyridine-3-carboxamide] | 2.29 nM
35 | COc1ccc(NC(=O)c2cc3ccc(Br)cc3n(C)c2=O)cc1 [Example 36, 7-Bromo-N-(4-methoxyphenyl)-1-methyl-2-oxo-quinoline-3-carboxamide] | 0.832 nM
36 | O=C(Nc1ccc(F)cn1)c1cc2cccc3c2n(c1=O)CC3 [Example 37, N-(5-Fluoro-2-pyridyl)-11-oxo-1-azatricyclo[6.3.1.04,12]dodeca-4(12),5,7,9-tetraene-10-carboxamide] | 0.807 nM
